In patent publication US20070027088A1 (priority 2003, published 2007):
Entries after “also recorded” stand apart in the source; their conditions may differ. Where a SMILES comes first, the peptide text is derived from it. [ ]: non-standard residue; d: D form.

system: human PBMCs stimulated with SEB; type: cell-based; conditions: not given

Molecule	inhibition of SEB proliferation (words)	inhibition of blastogenesis	inhibitory activity of alanine substitution constructs	inhibition of proliferative effects of the toxin	loss of inhibiting activity compared with original 12-mer peptide	inhibition of SEB proliferation
CSCC[C@@H](NC(=O)[C@H](N)CS)C(=O)N[C@H](Cc1ccc(O)cc1)C(=O)O [CMY*] (H-[dC]-[dM]-[dY]-OH)	significantly greater inhibitory effects than the control 12-mer peptide or their respective L-conformation peptides; also recorded: most effective in blocking superantigen activity	–	–	–	–	–
CSCC[C@@H](NC(=O)[C@H](N)Cc1ccc(O)cc1)C(=O)N[C@H](CS)C(=O)O [YMC*] (H-[dY]-[dM]-[dC]-OH)	significantly greater inhibitory effects than the control 12-mer peptide or their respective L-conformation peptides; also recorded: most effective in blocking superantigen activity	–	–	–	–	–
AAA [reference compound]	–	not effective	–	–	–	–
AMY	–	effective in inhibiting blastogenesis of the toxins	–	–	–	–
AMYGGVTEHEGN [SEQ ID NO: 8]	–	–	significant loss of the inhibitory properties	–	–	–
CAY	–	effective in inhibiting blastogenesis of the toxins	–	–	–	–
CAYGGVTEHEGN [SEQ ID NO: 9]	–	–	significant loss of the inhibitory properties	–	–	–
CMAGGVTEHEGN [SEQ ID NO: 10]	–	–	significant loss of the inhibitory properties; also recorded: complete loss of the inhibitory properties	–	–	–
CMYG	–	–	–	comparatively little effect in the inhibition of toxin regardless of concentration	–	–
CMYGGV	–	–	–	–	52%	–
CMYGGVAEHEGN [A at 7]	–	–	better inhibition of biological activity than the original 12-mer peptide	–	–	–
CMYGGVTAHEGN [A at 8]	–	–	better inhibition of biological activity than the original 12-mer peptide	–	–	–
CMYGGVTEHE	–	–	–	–	54%	–
CMYGGVTEHEG	–	–	–	–	18%	–
CMYGK	comparable to that of the original 12 amino acid peptide; also recorded: more effectively than the 12-mer peptide 6343	–	–	–	–	–
CMYKK	comparable and at high concentrations better than the original 12-mer peptide; also recorded: more effectively than the 12-mer peptide 6343	–	–	–	–	–
CYM	–	effective in inhibiting blastogenesis of the toxins	–	–	–	–
EHEGNCMYGGVT [6343S, reference compound]	minimal effect on bacterial toxin proliferation	–	–	–	–	less than 20%
MYC	–	effective in inhibiting blastogenesis of the toxins	–	–	–	–
MYGGVTEHEGN	–	–	–	–	approximately 30%	–
TEHEGN	–	–	–	–	48%	–
TTT [reference compound]	–	not effective	–	–	–	–
YGGVTEHEGN	–	–	–	–	approximately 50%	–
YYY [reference compound]	–	not inhibitory	–	–	–	–
acetylated CMY	did not significantly change the inhibitory effects of CMY	–	–	–	–	–
cmy-NH2	–	effective in inhibiting blastogenesis of the toxins	–	–	–	–
cmy-OH	–	effective in inhibiting blastogenesis of the toxins	–	–	–	–

system: superantigen shock in Balb/c mice (SEB); conditions: mouse, in vivo

Molecule	protection against superantigen shock
CSCC[C@@H](NC(=O)[C@H](N)CS)C(=O)N[C@H](Cc1ccc(O)cc1)C(=O)O [CMY*] (H-[dC]-[dM]-[dY]-OH)	provided some protection against superantigen-induced shock
CSCC[C@@H](NC(=O)[C@H](N)Cc1ccc(O)cc1)C(=O)N[C@H](CS)C(=O)O [YMC*] (H-[dY]-[dM]-[dC]-OH)	quite effective in protecting mice against shock

same assay, conditions: mouse, in vivo, ip

Molecule	% SURVIVAL [%]	SURVIVORS/INJECTED
CSCC[C@@H](NC(=O)[C@H](N)CS)C(=O)N[C@H](Cc1ccc(O)cc1)C(=O)O [CMY*] (H-[dC]-[dM]-[dY]-OH)	33	2/6
CSCC[C@@H](NC(=O)[C@H](N)Cc1ccc(O)cc1)C(=O)N[C@H](CS)C(=O)O [YMC*] (H-[dY]-[dM]-[dC]-OH)	83	5/6

system: IL-2 RNA; conditions: cited from earlier work

Molecule	inhibition of expression of IL-2 RNA
YNKKKATVQELD	18-40 fold

system: bacterial toxins; conditions: mouse, in vivo; cited from earlier work

Molecule	rescue from lethal effects of bacterial toxins
YNKKKATVQELD	rescues mice from the lethal effects of bacterial toxins
